pIC50: −log10 of the molar value.
Target: IDO1 (Homo sapiens, UniProt P14902)
Assay: IDO1 Cellular Assay in HeLa Cells Stimulated with IFNγ
Type: cell-based
Settings: read-out: HeLa Cell Potency, IC50

Sequence of IDO1 (P14902 whole entry): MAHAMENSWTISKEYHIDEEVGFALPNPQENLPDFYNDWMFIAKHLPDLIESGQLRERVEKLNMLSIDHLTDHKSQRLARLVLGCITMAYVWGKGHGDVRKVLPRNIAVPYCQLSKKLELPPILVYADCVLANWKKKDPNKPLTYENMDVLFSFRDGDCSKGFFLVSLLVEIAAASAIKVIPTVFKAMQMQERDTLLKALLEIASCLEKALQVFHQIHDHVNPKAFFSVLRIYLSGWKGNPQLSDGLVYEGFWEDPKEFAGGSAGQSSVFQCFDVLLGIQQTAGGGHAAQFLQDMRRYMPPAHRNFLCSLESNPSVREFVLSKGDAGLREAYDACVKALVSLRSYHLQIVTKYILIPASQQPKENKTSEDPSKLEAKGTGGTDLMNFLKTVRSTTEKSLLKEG

SMILES | pIC50
C[C@@H]1CN(C(=O)c2nn(CC(=O)N3CCN(c4cccc(F)c4F)CC3)c3c2CCC3)C[C@H](C)O1 [Example 35, 1-[4-(2,3-difluorophenyl)piperazin-1-yl]-2-{3-[(2R,6S)-2,6-dimethylmorpholine-4-carbonyl]-5,6-dihydrocyclopenta[c]pyrazol-1(4H)-yl}ethan-1-one] | 6.31
COc1cc(N2CCN(C(=O)Cn3nc(C(=O)N4C[C@@H](C)O[C@@H](C)C4)c4c3CCC4)CC2)ccc1C [Example 37, 2-{3-[(2R,6S)-2,6-dimethylmorpholine-4-carbonyl]-5,6-dihydrocyclopenta[c]pyrazol-1(4H)-yl}-1-[4-(3-methoxy-4-methylphenyl)piperazin-1-yl]ethan-1-one] | 6.63
COc1cccc(N2CCN(C(=O)Cn3nc(C(=O)N4C[C@@H](C)O[C@@H](C)C4)c4c3CCC4)CC2)c1F [Example 39, 2-{3-[(2R,6S)-2,6-dimethylmorpholine-4-carbonyl]-5,6-dihydrocyclopenta[c]pyrazol-1(4H)-yl}-1-[4-(2-fluoro-3-methoxyphenyl)piperazin-1-yl]ethan-1-one] | 6.43
Cc1cc(N2CCN(C(=O)Cn3nc(C(=O)N4C[C@@H](C)O[C@@H](C)C4)c4c3CCC4)CC2)cc(C)c1Cl [Example 40, 1-[4-(4-chloro-3,5-dimethylphenyl)piperazin-1-yl]-2-{3-[(2R,6S)-2,6-dimethylmorpholine-4-carbonyl]-5,6-dihydrocyclopenta[c]pyrazol-1(4H)-yl}ethan-1-one] | 6.65
Cc1cc(F)cc(N2CCN(C(=O)Cn3nc(C(=O)N4C[C@@H](C)O[C@@H](C)C4)c4c3CCC4)CC2)c1 [Example 41, 2-{3-[(2R,6S)-2,6-dimethylmorpholine-4-carbonyl]-5,6-dihydrocyclopenta[c]pyrazol-1(4H)-yl}-1-[4-(3-fluoro-5-methylphenyl)piperazin-1-yl]ethan-1-one] | 6.61
C[C@@H]1CN(C(=O)c2nn(CC(=O)N3CCN(c4ccc(Cl)cc4)CC3)c3c2CCC3)C[C@H](C)O1 [Example 42, 1-[4-(4-chlorophenyl)piperazin-1-yl]-2-{3-[(2R,6S)-2,6-dimethylmorpholine-4-carbonyl]-5,6-dihydrocyclopenta[c]pyrazol-1(4H)-yl}ethan-1-one] | 6.83
C[C@@H]1CN(C(=O)c2nn(CC(=O)N3CCN(c4cc(F)c(F)cc4Cl)CC3)c3c2CCC3)C[C@H](C)O1 [Example 44, 1-[4-(2-chloro-4,5-difluorophenyl)piperazin-1-yl]-2-{3-[(2R,6S)-2,6-dimethylmorpholine-4-carbonyl]-5,6-dihydrocyclopenta[c]pyrazol-1(4H)-yl}ethan-1-one] | 6.59

The next lines start with the values.

pIC50 | SMILES
6.85 | Cc1ccc(N2CCN(C(=O)Cn3nc(C(=O)N4C[C@@H](C)O[C@@H](C)C4)c4c3CCC4)CC2)cc1 [Example 34, 2-{3-[(2R,6S)-2,6-dimethylmorpholine-4-carbonyl]-5,6-dihydrocyclopenta[c]pyrazol-1(4H)-yl}-1-[4-(4-methylphenyl)piperazin-1-yl]ethan-1-one]
7.26 | COc1cc(F)cc(N2CCN(C(=O)Cn3nc(C(=O)N4C[C@@H](C)O[C@@H](C)C4)c4c3CCC4)CC2)c1 [Example 36, 2-{3-[(2R,6S)-2,6-dimethylmorpholine-4-carbonyl]-5,6-dihydrocyclopenta[c]pyrazol-1(4H)-yl}-1-[4-(3-fluoro-5-methoxyphenyl)piperazin-1-yl]ethan-1-one]
6.91 | COc1ccc(N2CCN(C(=O)Cn3nc(C(=O)N4C[C@@H](C)O[C@@H](C)C4)c4c3CCC4)CC2)c(C)c1 [Example 38, 2-{3-[(2R,6S)-2,6-dimethylmorpholine-4-carbonyl]-5,6-dihydrocyclopenta[c]pyrazol-1(4H)-yl}-1-[4-(4-methoxy-2-methylphenyl)piperazin-1-yl]ethan-1-one]
7.46 | Cc1cc(Cl)ccc1N1CCN(C(=O)Cn2nc(C(=O)N3C[C@@H](C)O[C@@H](C)C3)c3c2CCC3)CC1 [Example 43, 1-[4-(4-chloro-2-methylphenyl)piperazin-1-yl]-2-{3-[(2R,6S)-2,6-dimethylmorpholine-4-carbonyl]-5,6-dihydrocyclopenta[c]pyrazol-1(4H)-yl}ethan-1-one]

Reference: US12264134B2 (Merck Sharp & Dohme LLC, priority 2018, dated 2025)
